Test results as given in ChEMBL document CHEMBL1124561, “Synthesis of acyclonucleoside hydroxamic acids as inhibitors of ribonucleotide reductase” (J Med Chem, 1989).
Values joined by “and” are separate entries in the source; they are usually repeats but may differ in a detail not shown here. Equal values may be shown once.

Assays:
[1] = Inhibition against cytidine diphosphate reductase activity in calf thymus; assay type: tissue-based, Bos taurus
[2] = tested on: HeLa; assay: Percent inhibition of growth of human cervical carcinoma (HeLa) cells in culture at 10 micro g/mL of the compound; assay type: functional
[3] = tested on: HeLa; assay: Percent inhibition of growth of human cervical carcinoma (HeLa) cells in culture at 2.5 micro g/mL of the compound; assay type: functional
[4] = tested on: HeLa; assay: Percent inhibition of growth of human cervical carcinoma (HeLa) cells in culture at 25 micro g/mL of the compound; assay type: functional
[5] = tested on: HeLa; assay: Percent inhibition of growth of human cervical carcinoma (HeLa) cells in culture at 50 micro g/mL of the compound; assay type: functional
[6] = tested on: HeLa; assay: Percent inhibition of growth of human cervical carcinoma (HeLa) cells in culture at 5 micro g/mL of the compound; assay type: functional
[7] = tested on: HeLa; assay: Percent inhibition of growth of human cervical carcinoma (HeLa) cells in culture at 200 micro g/mL of the compound; assay type: functional
[8] = tested on: HeLa; assay: Percent inhibition of growth of human cervical carcinoma (HeLa) cells in culture at 100 micro g/mL of the compound; assay type: functional
[9] = tested on: HeLa; assay: Percent inhibition of growth of human cervical carcinoma (HeLa) cells in culture at 0.1 micro g/mL of the compound; assay type: functional
[10] = tested on: HeLa; assay: Percent inhibition of growth of human cervical carcinoma (HeLa) cells in culture at 1 micro g/mL of the compound; assay type: functional

Compound | IC50 [1] [µM] | Inhibition [2] | Inhibition [3] [%] | Inhibition [4] [%] | Inhibition [5] [%] | Inhibition [6] [%] | Inhibition [7] [%] | Inhibition [8] [%] | Inhibition [9] [%] | Inhibition [10] [%]
O=C(NO)C(OCCO)n1cc(F)c(=O)[nH]c1=O (centres undefined) | 1400 | 66% | 16.5 | 75 | 80 | 40 |  |  |  | 
O=C(NO)C(OCCO)n1ccc(=O)[nH]c1=O (centres undefined) | 2200 |  |  | 19 | 13 |  | 97 | 47 |  | 
Nc1ccn(C(OCCO)C(=O)NO)c(=O)n1 (centres undefined) | 4900 |  |  |  |  |  | 0 |  |  | 
O=c1[nH]cc(F)c(=O)[nH]1 [FLUOROURACIL] |  | 63.5% and 70% |  | 77 | 90 | 34.3 |  |  | 19 | 55
NC(=O)NO [HYDROXYUREA] | 500 | 63.5% |  | 77 | 90 | 34.3 |  |  |  | 
